Measurements as given in the supplement of paper PMC3974653.
Where a name gives a salt, the structure may show the parent alone.

System: MTT (mouse pheochromocytoma)
Assay: IC50 of cell viability (ATP content)
Conditions: (24 or 48 h)
Procedure, shortened: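 Each well of a white 1536-well plate received 5 µl of MTT mouse pheochromocytoma cells at 200,000 cells/ml in DMEM containing 5% FBS and 1% horse serum. After overnight culture at 37°C, 5% CO2, cells were exposed for 24 or 48 hrs to 23 nl of library compound in DMSO, pinned at 8 final concentrations from 0.5 nM to 46 µM. CellTiter-Glo luminescence was read after 15 minutes, and IC50 was obtained from a four-parameter logistic fit of signals normalised to positive-control and DMSO wells.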

| Compound | IC50 of cell viability |
| --- | --- |
| Cc1nnc2n1-c1sc(CCc3ccc(CC(C)C)cc3)cc1C(c1ccccc1Cl)=NC2C (configuration not stated) [ISRAPAFANT] | > 46 µM |
| CN1C2CCC1CC(NC(=O)n1c(=O)[nH]c3ccccc31)C2 (configuration not stated) [ITASETRON HYDROCHLORIDE HYDRATE] | > 46 µM |
| COc1ccc(C(=O)NCc2ccc(OCCN(C)C)cc2)cc1OC [ITOPRIDE HYDROCHLORIDE] | > 46 µM |
| COc1cc2c(cc1OC)CC(=O)N(CCCN(C)C[C@H]1Cc3cc(OC)c(OC)cc31)CC2 [IVABRADINE HYDROCHLORIDE] | > 46 µM |
| CC[C@H](C)[C@H]1O[C@]2(CC[C@@H]1C)C[C@@H]1C[C@@H](C/C=C(\C)[C@H](O[C@@H]3C[C@H](OC)[C@H](O[C@@H]4C[C@H](OC)[C@@H](O)[C@H](C)O4)[C@H](C)O3)[C@@H](C)/C=C/C=C3\CO[C@@H]4[C@H](O)C(C)=C[C@@H](C(=O)O1)[C@]34O)O2 [IVERMECTIN] | > 46 µM |
| CCC1CC2CC3c4[nH]c5ccc(OC)cc5c4CCN(C2)C13 (configuration not stated) [Ibogaine] | > 46 µM |
| CC(C)C(=O)c1c(C(C)C)nn2ccccc12 [Ibudilast] | > 46 µM |
| CC(C)Cc1ccc(CC(=O)O)cc1 [Ibufenac] | > 46 µM |
| CC(C)Cc1ccc(C(C)C(=O)O)cc1 (configuration not stated) [Ibuprofen] | > 46 µM |
| CCCCCCCN(CC)CCCC(O)c1ccc(N[S+](C)(=O)[O-])cc1 (configuration not stated) [Ibutilide] | > 46 µM |
| COC1=C(OC)C(=O)C(CCCCCCCCCCO)=C(C)C1=O [Idebenone] | > 46 µM |
| OC[C@@H]1O[C@H](C[C@@H]1O)N2\C=C(\I)C(=O)NC2=O [Idoxuridine] | > 46 µM |
| O=C(/C=C/c1ccccc1)NCCO [Idrocilamida] | > 46 µM |
| O=[P@@]1(NCCCl)OCCCN1CCCl [Ifosfamide] | > 46 µM |
| CCCCCCCCCCCCCCCCSCC(COC)COP(=O)([O-])OCC[N+](C)(C)C (configuration not stated) [Ilmofosine] | > 46 µM |
| COc1cc(C(C)=O)ccc1OCCCN1CCC(c2noc3cc(F)ccc23)CC1 [Iloperidone] | > 46 µM |
| CC#CCC(C)[C@H](O)/C=C/C1[C@H](O)C[C@@H]2C/C(=C\CCCC(=O)O)C[C@H]12 (some centres not stated) [Iloprost] | > 46 µM |
| C=CCOC(Cn1ccnc1)c1ccc(Cl)cc1Cl (configuration not stated) [Imazalil sulphate] | > 46 µM |
| O=C1CC\C(=N/N1)C2=CC=C(C=C2)[N]3C=CN=C3 [Imazodan] | > 46 µM |
| O=C(NCNC(=O)NC1C(=O)NC(=O)N1CO)NC1C(=O)NC(=O)N1CO (configuration not stated) [Imidazolidinyl urea] | > 46 µM |
| CCC(=O)O.CCC(=O)O.O=C(Nc1cccc(C2=NCCN2)c1)Nc1cccc(C2=NCCN2)c1 [Imidocarbe] | > 46 µM |
| C[C@H](O)[C@H]1[C@@H]2C\C(=C(/N2C1=O)C(O)=O)SCCNC=N [Imipenem] | > 46 µM |
| C\C(C)=C\[C@@H]1[C@@H](C(=O)OCN2C(=O)CN(CC#C)C2=O)C1(C)C [Imiprothrin] | > 46 µM |
| CC(C)Cn1cnc2c(N)nc3ccccc3c21 [Imiquimod] | > 46 µM |

| Compound | IC50 of cell viability |
| --- | --- |
| C[S+](=O)([O-])OCCC[NH2+]CCCO[S+](C)(=O)[O-] [Improsulfan tosylate] | > 46 µM |
| c1ccc2c(CCC3CC[NH2+]CC3)c[nH]c2c1 [Indalpine] | > 46 µM |
| CN[C@@H]1C[C@@H](c2ccc(Cl)c(Cl)c2)c2ccccc21.Cl [Indatraline hydrochloride] | > 46 µM |
| O=C1/C(=C2\Nc3ccc(S(=O)(=O)O)cc3C2=O)Nc2ccc(S(=O)(=O)O)cc21 [Indigo carmine] | > 46 µM |
| O=C1/C(=C2\Nc3ccc([S+](=O)([O-])O)cc3C2=O)Nc2ccc([S+](=O)([O-])O)cc21 [Indigo carmine] | > 46 µM |
| O=C1/C(=C2/Nc3ccc(S(=O)(=O)[O-])cc3C2=O)Nc2ccc(S(=O)(=O)[O-])cc21 [Indigo carmine] | > 46 µM |
| [Cl][In]([Cl])[Cl] [Indium trichloride] | > 46 µM |
| Cc1c(C)n(Cc2ccccc2)c2ccc(C(=O)OCCN(C)C)cc12 [Indocate] | > 46 µM |
| OCc1c[nH]c2ccccc12 [Indole-3-carbinol] | > 46 µM |
| COc1ccc2c(c1)c(CC(=O)O)c(C)n2C(=O)c1ccc(Cl)cc1 [Indometacin] | > 46 µM |
| COC(=O)C(CN)c1c[nH]c2ccc(OC)cc12 (configuration not stated) [Indorenate hydrochloride] | > 46 µM |
| CC(=O)N(C[C@@H](C)C(=O)O)c1c(I)cc(I)c(N)c1I [Iocetamic acid] | > 46 µM |
| O=C(CCCCC(=O)Nc1c(I)cc(I)c(C(=O)O)c1I)Nc1c(I)cc(I)c(C(=O)O)c1I [Iodipamide] | > 46 µM |
| CC(=O)N(CC(O)CN(C(C)=O)c1c(I)c(C(=O)NC[C@@H](O)CO)c(I)c(C(=O)NC[C@@H](O)CO)c1I)c1c(I)c(C(=O)NC[C@@H](O)CO)c(I)c(C(=O)NC[C@@H](O)CO)c1I [Iodixanol] | > 46 µM |
| Oc1c(I)cc(Cl)c2cccnc12 [Iodochlorohydroxyquinoline] | > 46 µM |
| IC(I)I [Iodoform] | > 46 µM |
| CC(C)NC(C)Cc1ccc(I)cc1.Cl (configuration not stated) [Iofetamine hydrochloride] | > 46 µM |
| CC(=O)N(CC(O)CO)c1c(I)c(C(=O)NCC(O)CO)c(I)c(C(=O)NCC(O)CO)c1I (configuration not stated) [Iohexol] | > 46 µM |
| CN(C(=O)CO)c1c(I)c(C(=O)NCC(O)CO)c(I)c(C(=O)NCC(O)CO)c1I (configuration not stated) [Iomeprol] | > 46 µM |
| C[C@H](O)C(=O)Nc1c(I)c(C(=O)NC(CO)CO)c(I)c(C(=O)NC(CO)CO)c1I [Iopamidol] | > 46 µM |
| CC(C)CCON=O [Isoamyl nitrite] | > 46 µM |
| CC[C@H](NC(C)C)[C@H](O)c1ccc(O)c(O)c1.C[S+](=O)([O-])O [Isoetharine mesylate salt] | > 46 µM |
| CC(C)[N+](C)(CCC(C(N)=O)(c1ccccc1)c1ccccc1)C(C)C [Isopropamide iodide] | > 46 µM |
| C=C(C)[C@H]1CN[C@H](C(=O)O)[C@H]1CC(=O)O [KAINIC ACID] | > 46 µM |

Second part, the molecule after the results:

| IC50 of cell viability | Compound |
| --- | --- |
| > 46 µM | COCC(=O)Nc1c(I)c(C(=O)NC[C@@H](O)CO)c(I)c(C(=O)N(C)C[C@@H](O)CO)c1I [Iopromide] |
| > 46 µM | O=C(NC[C@@H](O)CO)c1c(I)c(C(=O)NC[C@@H](O)CO)c(I)c(N(CCO)C(=O)CO)c1I [Ioversol] |
| > 46 µM | CNC(=O)c1c(I)c(C(=O)NCC(=O)Nc2c(I)c(C(=O)O)c(I)c(C(=O)NCCO)c2I)c(I)c(N(C)C(C)=O)c1I [Ioxaglic acid] |
| > 46 µM | CC(=O)N(CC(O)CO)c1c(I)c(C(=O)NCCO)c(I)c(C(=O)NCC(O)CO)c1I (configuration not stated) [Ioxilan] |
| > 46 µM | CC(C)[N+]1(C)[C@@H]2CC[C@H]1CC(OC(=O)C(CO)c1ccccc1)C2 (some centres not stated) [Ipratropium bromide monohydrate] |
| > 46 µM | CC(C)Oc1ccc2c(=O)c(-c3ccccc3)coc2c1 [Ipriflavone] |
| > 46 µM | O=C1c2ccccc2[S+](=O)([O-])N1CCCCN1CCN(c2ncccn2)CC1 [Ipsapirone] |
| > 46 µM | O=C(O)CCCC/C=C(\c1ccccc1)c1cccnc1 [Isbogrel] |
| > 46 µM | CNC1C(O)C(OC2C(NC(=O)C(O)CN)CC(N)C(OC3OC(CN)C(O)C(O)C3O)C2O)OCC1(C)O (configuration not stated) [Isepamicin] |
| > 46 µM | CC(C)COC(=O)c1ccc(N)cc1 [Isobutamben] |
| > 46 µM | Cc1cc(C(=O)NNCc2ccccc2)no1 [Isocarboxazid] |
| > 46 µM | Clc1ccc([C@H](Cn2ccnc2)OCc2c(Cl)cccc2Cl)c(Cl)c1 [Isoconazole] |
| > 46 µM | C/C=C/c1ccc(O)c(OC)c1 [Isoeugenol] |
| > 46 µM | CC(=O)OCC(=O)[C@@]1(O)CC[C@@H]2[C@H]3CC\C4=C\C(=O)\C=C/[C@]4(C)[C@]3(F)[C@@H](O)C[C@@]12C [Isoflupredone acetate] |
| > 46 µM | CN[C@@H](C)CC\C=C(/C)C.CN[C@@H](C)CC\C=C(/C)C.O[C@@H]([C@@H](O)[C@@H](O)C(O)=O)[C@H](O)C(O)=O [Isometheptene mucate] |
| > 46 µM | NNC(=O)c1ccncc1 [Isoniazid] |
| > 46 µM | C[C@H](N[C@@H](C)COc1ccccc1)[C@H](O)c1ccc(O)cc1 [Isoxsuprine hydrochloride] |
| > 46 µM | COC(=O)\C1=C(/C)N\C(=C(/[C@H]1C2=CC=CC3=NON=C23)C(=O)OC(C)C)C [Isradipine] |
| > 46 µM | CO[C@H]1[C@@H](O[C@@H]2O[C@@H](C)[C@@H](O[C@H]3C[C@](C)(O)[C@H](OC(=O)CC(C)C)[C@H](C)O3)[C@@H](N(C)C)[C@H]2O)[C@H](CC=O)C[C@@H](C)[C@@H](O)/C=C\C=C/C[C@@H](C)OC(=O)C[C@H]1OC(C)=O [Josamycin] |
| > 46 µM | NCC1O[C@@H](OC2C(N)C[C@H](N)[C@@H](O[C@H]3OC(CO)C(O)C(N)C3O)C2O)C(N)C(O)C1O (some centres not stated) [KANAMYCIN B] |
| > 46 µM | O=C(c1ccc(F)cc1)C1CCN(CCn2c(=O)[nH]c3ccccc3c2=O)CC1 [KETANSERIN] |
| > 46 µM | CN1CCC(=C2c3ccccc3CC(=O)c3sccc32)CC1 [KETOTIFEN] |
| > 46 µM | OC\C1=C\C(=O)\C(=C/O1)O [KOJIC ACID] |
| > 46 µM | NC[C@@H]1O[C@@H](O[C@H]2[C@@H](O)[C@H](O[C@@H]3O[C@@H](CO)[C@H](O)[C@H](N)[C@@H]3O)[C@@H](N)C[C@H]2N)[C@H](O)[C@H](O)[C@@H]1O [Kanamycin A sulfate] |
